Among the data in patent publication US20090069328A1, “ALPHA-ALKYL SUBSTITUTED N-ACYLTRYPTOPHANOLS” (priority 2007, published 2009) are IC50 values, retold here.

The test addresses T1, human FSH receptor (Homo sapiens, UniProt P23945).
T1 construct: expressed in transfected cells; host or cells: CHO cells (hFSHR clone 16)
T1 sequence (P23945 18-695): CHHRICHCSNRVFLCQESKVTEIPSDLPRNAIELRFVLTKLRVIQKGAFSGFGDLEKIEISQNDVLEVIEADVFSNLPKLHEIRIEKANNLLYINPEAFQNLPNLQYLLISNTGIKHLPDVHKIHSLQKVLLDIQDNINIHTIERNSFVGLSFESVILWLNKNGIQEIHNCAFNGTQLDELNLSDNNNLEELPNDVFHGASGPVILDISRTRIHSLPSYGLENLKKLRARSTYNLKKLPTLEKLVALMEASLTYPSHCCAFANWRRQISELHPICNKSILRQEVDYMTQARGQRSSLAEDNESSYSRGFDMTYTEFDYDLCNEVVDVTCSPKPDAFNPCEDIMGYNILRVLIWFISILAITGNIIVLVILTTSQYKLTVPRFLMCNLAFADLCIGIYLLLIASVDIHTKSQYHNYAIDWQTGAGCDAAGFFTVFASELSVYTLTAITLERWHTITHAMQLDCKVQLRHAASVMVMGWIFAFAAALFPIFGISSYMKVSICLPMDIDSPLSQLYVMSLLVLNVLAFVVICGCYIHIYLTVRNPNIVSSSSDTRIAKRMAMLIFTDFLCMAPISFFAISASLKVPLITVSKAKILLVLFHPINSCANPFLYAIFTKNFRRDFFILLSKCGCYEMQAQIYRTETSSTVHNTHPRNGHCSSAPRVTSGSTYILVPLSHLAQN
Description: HTRF assay for measuring cAMP in cells (FSH antagonism). The format is cell-based. The settings on record: hFSHR clone 16 cells (CHO cells stably transfected with the human FSH receptor); in the presence of 1e-9 mol/l hFSH; cAMP readout; read-out: IC50 (FSH antagonistic effect in the HTRF assay). The protocol: HTRF Assay for Measuring cAMP in Cells
The method is based on a competitive immunoassay between native cAMP, which has been produced by the cells, and cAMP which is labelled with cAMPD2 conjugate. The tracer binding was visualized by a monoclonal antibody, anti-cAMP labelled with cryptate [HTRF=homogeneous time-resolved fluorescence].
The specific signal is inversely proportional to the cAMP concentration of the samples employed.
The 665 nm/620 nm fluorescence ratio was evaluated.
The following material was used: 96-well plates for the tissue culture, 96-well plates with black edge and black base (e.g. Fluotrac 600 from Greiner), 96-well plates for the substance dilutions of polypropylene and cAMP Femtomolar (4000wells Kit, CIS Bio International #62AM5PEJ).
The following reagents were used: BSA (bovine serum albumin) Fraction V protease-free, IBMX (3-isobutyl-1-methylxanthine), hFSH (human follicle stimulating hormone), Triton X-100 analytical grade, potassium fluoride analytical grade, G 418 (Geneticin) and Accutase.
Buffer 1 (washing and testing buffer) contained PBS, 1 mM CaCl2, 1 mM MgCl2, 0.2% glucose; 0.1% BSA, 1 mM IBMX.
Buffer 2 (2× lysis buffer) contained 1% Triton X-100 in PBS (without CaCl2 and MgCl2).
Buffer 3 (assay buffer) contained 50 mM potassium phosphate buffer (pH 7.0); 800 mM potassium fluoride; 0.2% BSA (always added fresh).
On day 1, the cells were seeded in 96-well plates (3×10^4 cells per well hFSHR clone 16 cells (CHO cells stably transfected with the human FSH receptor in 150 μl of medium). The next day, test substance dilutions were made up. For this purpose, all the substances were diluted in ice-cold buffer 1 (with or without hFSH), and the substance dilutions were placed on ice until applied to the cells.
The cell supernatant was then aspirated off, and the cells were washed 2× with 200 μl of buffer 1. The cells were treated with 60 μl of the appropriate substance concentrations at 37° C. for 2 h. The cells were then lysed with 60 μl of buffer 2 (put onto the supernatant) (on a plate shaker at RT for 30 min).
The test conjugates (cAMP-D2 and anti-cAMP cryptate, CIS Bio) were diluted in buffer 3 in accordance with the manufacturers' information. The actual mixture for measurement was pipetted into a black 96-well plate (in each case 15 μl of the cell lysate diluted with 35 μl of buffer 1; firstly 25 μl of cAMP-D2 conjugate were pipetted and, after 10 min, 25 μl of the anti-cAMP cryptate were added). This is followed by incubation at RT for 90 minutes. The measurement was carried out in a PheraStar (BMG).
Dose-effect curve (hFSH) for the human receptor: 1e-8, 3e-9, 1e-9, 3e-10, 1e-10, 3e-11, 1e-11, 3e-12 mol/l.
The test substances were employed in suitable dilutions in the absence (test for agonism) and in the presence of 1e-9 mol/l hFSH.
The values of the well ratio were averaged and then entered directly in SigmaPlot versus the concentrations. The maximum and minimum values were determined for each plate, and half the difference is to be regarded as IC50.
For `CC(C)Oc1ccc(C#Cc2ccccc2)cc1C(=O)NC(C)(CO)Cc1c[nH]c2ccccc12` (centres unmarked) [Example 1, N-[1-Hydroxymethyl-2-(1H-indol-3-yl)-1-methyl-ethyl]-2-isopropoxy-5-phenylethynyl-benzamide], the IC50 came to 1000 nM.

`COc1ccccc1C#Cc1ccc(OC(C)C)c(C(=O)NC(C)(CO)Cc2c[nH]c3ccccc23)c1` (centres unmarked) [Example 5, N-[1-Hydroxymethyl-2-(1H-indol-3-yl)-1-methyl-ethyl]-2-isopropoxy-5-(2-methoxy-phenylethynyl)-benzamide]: the half-inhibitory concentration (IC50) was determined as 200 nM.

Consider `CNC(=O)c1cc(F)cc(-c2ccc(OC(C)C)c(C(=O)NC(C)(CO)Cc3c[nH]c4ccccc34)c2)c1` (centres unmarked) [Example 2, 5′-Fluoro-4-isopropoxy-biphenyl-3,3′-dicarboxylic acid 3-{[2-hydroxy-1-(1H-indol-3-ylmethyl)-1-methyl-ethyl]-amide} 3′-methylamide], for which the half-maximal inhibitory concentration (IC50) was determined as 1000 nM.

In the case of `CNC(=O)c1ccc(-c2ccc(OC(C)C)c(C(=O)NC(C)(CO)Cc3c[nH]c4ccccc34)c2)cc1Cl` (centres unmarked) [Example 3, 3′-Chloro-4-isopropoxy-biphenyl-3,4′-dicarboxylic acid 3-{[2-hydroxy-1-(1H-indol-3-ylmethyl)-1-methyl-ethyl]-amide}-4′-methylamide], the concentration for half-maximal inhibition (IC50) came out at 100 nM.

On to `COc1ccc(-c2ccc(OC(C)C)c(C(=O)NC(C)(CO)Cc3c[nH]c4ccccc34)c2)cc1OC` (racemic) [Example 4, 4-Isopropoxy-3′,4′-dimethoxy-biphenyl-3-carboxylic acid [1-hydroxymethyl-2-(1H-indol-3-yl)-1-methyl-ethyl]-amide], for which the IC50 came to 50 nM.
